Laboratory results from paper PMC7887271, “Fast acting allosteric phosphofructokinase inhibitors block trypanosome glycolysis and cure acute African trypanosomiasis in mice” (Nature Communications, 2021).
Where “and” joins values, the source holds several entries; their conditions need not be identical. Identical values can stand only once.

Experiments:
Human hERG = Human hERG (Homo sapiens, UniProt Q12809); assay: Human hERG inhibition
Description: Methods are described in Supplementary Methods 5 and 6. Enzyme assay results are means ± SD in multiple assays. ADME results are averages of n = 2 or 3 measurements in individual assays.

T. b. brucei GVR35-luc = assay: Wash-out studies, GVR35; type: cell-based; settings: concentrations greater than 2 to 4 µM, exposure longer than 4-6 hours, 3 days in drug free medium
Method: In vitro ‘wash-out’ studies were performed to determine the reversibility of the action of the CTCB compounds on trypanosomes, after a certain exposure time, and thus to assess whether the compounds have a trypanocidal or trypanostatic effect. These experiments were carried out with both the T. b. brucei Lister 427 and T. b. brucei GVR35-luc strains. Trypanosomes at a density of 500,000 cells/ml in culture medium were incubated with CTCB compounds at varying concentrations in 12-well plates in volumes of 1 ml for different periods of time at 37°C. Subsequently, the cultures were centrifuged for 5 min at 2600 x g, the cells washed by re-suspending the pellets in 1 ml medium without inhibitors, centrifuged again and re-suspended in 1 ml fresh medium. The cell suspensions were then incubated under regular culture conditions for 3 days and parasite growth monitored daily by light microscopy.
The results for both strains are similar with no grow-back at concentrations of CTCB compounds greater than 2 to 4 µM with drug exposure longer than 4-6 hours.

T. b. rhodesiense = assay: EC50 against in vitro cultured T. b. rhodesiense (STMI); type: cell-based; settings: Trypanosoma brucei
CYP2C19 = biological target: T1, CYP2C19 (Homo sapiens, UniProt P33261); assay: Inhibition of CYP2C19; type: in vitro ADME; settings: CYP450 isoform inhibition kit (BD Biosciences), probe CEC
T1 construct: purchased BD Biosciences
Method: A HepG2 cytotoxicity assay was used to determine a cellular selectivity index. HepG2 cells were seeded into 96-well plates in EMEM medium. Compounds were assessed for their effect upon cellular viability (Supplementary Methods 5.1). Inhibition of CYP450 was determined using kits from BD Biosciences (Supplementary Methods 5.2). Metabolic stability was determined using mouse […] tested at a single concentration of 5 µM. Plasma protein binding was determined using mouse and human plasma at a single concentration of 10 µM (Supplementary Methods 5.4). All PK studies in mice were carried out by Pharmidex (Supplementary Methods 6.1).
The compounds were investigated for their inhibitory effect on cytochrome P450 (CYP450) activity using five CYP450 isoforms (with fluorescent substrates in brackets): 3A4 (two substrates, BFC and DBF), 2D6 (AMMC), 2C9 (MFC), 2C19 (CEC) and 1A2 (CEC). Kits from BD Biosciences were used along with the method described by the manufacturer. […] Fluorescence was measured using a SpectraMax M5 plate reader.

MDCK-MDR1 = settings: dog
T. b. brucei GVR35-Luc2 = T. b. brucei GVR35-Luc2 time-to-kill assay (luciferin); type: cell-based; settings: for Luminescence, Average / Luminescence, individual replicates: Time to kill assay for GVR35 cells
Method: Enzyme activity was measured using an aldolase/TIM linked assay at 25 °C. […] Experiments were carried out in duplicate. Data are presented as mean values ± standard deviation. […] Source data are provided as a Source Data File. b Kill time of CTCB-405 compared with existing HAT drugs in the clinic. […] Over 99% of trypanosomes were killed in under 30 min compared with much slower killing rates for the other drugs. The points on the graph for CTCB-405 were determined from two independent biological replicate experiments with each time point measured twice (using duplicate technical replicates). The ESD for each point on the graph is between 0.7 and 1.4%. For drugs in clinical use each point on the graph is the average of two technical replicates from one experiment (with a maximum difference of 7.8% for any of the points). Source data are provided as a Source Data File.
As predicted from the biology of the BSF that relies wholly on glycolysis for ATP production, inhibition of the pathway results in a very fast TTK. Two experimental methods were used to measure ATP levels as a real-time indicator of viability. For Tb427 parasites, a Cell Titre Glo kit was used and for the TbGVR35 bioluminescent strain, killing was assessed by adding luciferin which requires ATP to produce a luminescent signal (Supplementary Methods 4.3 and 4.4). […] The BSF of T. brucei cannot produce ATP by oxidative phosphorylation and is solely dependent on flux through the glycolytic pathway. The clear correlation between inhibitor dose and reduction in ATP production, as observed in the TTK assays strongly supports the proposed mode of action of the CTCB compounds is by blocking glycolysis. It is a long-established experimental observation that withdrawal of glucose nutrient leads to rapid loss of motility and cell death. It has recently been shown that the BSF of T. brucei can proliferate on high levels of glycerol; however, we have shown that addition of glycerol to the medium has little effect on parasite killing by the CTCB compounds (Supplementary Table 3).
The killing of T. b. brucei GVR35-Luc2 was assessed by adding D-luciferin to live cells resulting in the production of light in the presence of ATP and luciferase activity. Compounds of interest were serially diluted from 16 µM to 0.5 µM in Modified HMI-9 medium and added into sterile white, flat bottom 96-well plate (Greiner Inc.). 32,000 trypanosomes were added to each well. The plates were incubated at 37 °C and 5% CO2. At the end of each incubation, 200 µg/ml of D-luciferin was added to each well and incubated for 10 min. Luminescence was measured using a BMG plate reader and percentage cell viability versus incubation time was determined.

[1] = GVR35 TTK, 24 h incubation, replicate wells

Human hERG, sequence (Q12809 whole entry): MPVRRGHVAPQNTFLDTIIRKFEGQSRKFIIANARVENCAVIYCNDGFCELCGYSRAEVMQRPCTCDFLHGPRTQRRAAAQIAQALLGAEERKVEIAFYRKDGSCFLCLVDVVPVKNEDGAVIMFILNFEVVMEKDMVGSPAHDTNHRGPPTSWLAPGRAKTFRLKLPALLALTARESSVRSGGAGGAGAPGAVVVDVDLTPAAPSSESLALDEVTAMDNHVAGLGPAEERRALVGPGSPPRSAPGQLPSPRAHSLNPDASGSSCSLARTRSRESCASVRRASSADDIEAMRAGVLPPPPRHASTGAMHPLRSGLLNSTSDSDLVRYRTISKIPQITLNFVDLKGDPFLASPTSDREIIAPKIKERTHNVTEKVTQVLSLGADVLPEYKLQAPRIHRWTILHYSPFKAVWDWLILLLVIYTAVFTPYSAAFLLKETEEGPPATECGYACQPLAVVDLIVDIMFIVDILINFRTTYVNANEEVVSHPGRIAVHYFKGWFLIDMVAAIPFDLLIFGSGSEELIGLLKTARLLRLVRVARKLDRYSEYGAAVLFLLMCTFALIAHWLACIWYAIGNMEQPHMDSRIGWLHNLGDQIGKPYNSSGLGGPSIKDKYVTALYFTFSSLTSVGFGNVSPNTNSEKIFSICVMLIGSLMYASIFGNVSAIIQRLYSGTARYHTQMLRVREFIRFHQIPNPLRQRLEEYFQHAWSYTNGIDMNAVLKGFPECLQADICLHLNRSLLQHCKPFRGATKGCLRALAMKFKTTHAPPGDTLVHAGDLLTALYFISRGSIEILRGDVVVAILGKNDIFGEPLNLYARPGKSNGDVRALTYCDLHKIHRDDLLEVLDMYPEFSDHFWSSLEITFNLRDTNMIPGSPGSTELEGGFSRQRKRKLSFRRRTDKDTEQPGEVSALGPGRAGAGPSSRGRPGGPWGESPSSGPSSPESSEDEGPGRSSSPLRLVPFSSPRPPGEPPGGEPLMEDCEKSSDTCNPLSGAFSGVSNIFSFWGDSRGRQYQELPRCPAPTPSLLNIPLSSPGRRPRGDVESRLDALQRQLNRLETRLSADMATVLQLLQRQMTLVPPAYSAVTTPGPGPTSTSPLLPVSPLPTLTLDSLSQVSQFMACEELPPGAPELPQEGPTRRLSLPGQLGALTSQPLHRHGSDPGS
T1 sequence (P33261 whole entry, canonical isoform): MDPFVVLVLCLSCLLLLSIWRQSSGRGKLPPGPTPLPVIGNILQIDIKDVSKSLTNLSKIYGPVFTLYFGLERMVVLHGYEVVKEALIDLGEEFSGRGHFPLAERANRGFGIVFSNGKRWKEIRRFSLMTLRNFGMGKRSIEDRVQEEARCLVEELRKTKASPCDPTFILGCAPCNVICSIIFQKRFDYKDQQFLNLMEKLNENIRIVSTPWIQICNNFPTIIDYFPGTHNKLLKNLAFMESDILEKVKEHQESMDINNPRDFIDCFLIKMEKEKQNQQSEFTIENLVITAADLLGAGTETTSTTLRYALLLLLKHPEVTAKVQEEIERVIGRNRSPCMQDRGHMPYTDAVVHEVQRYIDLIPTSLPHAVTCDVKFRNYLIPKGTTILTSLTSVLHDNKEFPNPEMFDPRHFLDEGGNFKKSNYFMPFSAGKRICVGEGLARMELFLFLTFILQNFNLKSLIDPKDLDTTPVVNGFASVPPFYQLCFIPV

CN(C)CCn1ccc2c(ccn2Cc2ccc(F)c(Br)c2)c1=O [CTCB-508, 1-[(3-Bromo-4-fluorophenyl)methyl]-5-[2-(dimethylamino)ethyl] pyrrolo[3,2-c]pyridin-4-one]
IC50 (Human hERG): 4.75 µM

CN(C)CCn1ccc2c(ccn2Cc2ccc(Cl)c(Br)c2)c1=O [CTCB-470, 1-[(3-Bromo-4-chlorophenyl)methyl]-5-[2-(dimethylamino)ethyl] pyrrolo[3,2-c]pyridin-4-one]
wash-out: grow-back after removal of drug (T. b. brucei GVR35-luc): no grow-back
EC50 (T. b. rhodesiense): 280 nM
inhibition at 10 µM (CYP2C19): 45%
IC50 (Human hERG): 1.69 µM
MDCK-MDR1 A-B (MDCK-MDR1): 34.9
MDCK-MDR1 B-A (MDCK-MDR1): 28.3

CNCCn1ccc2c(ccn2Cc2ccc(Cl)c(Cl)c2)c1=O [CTCB-435]
% Cell viability, single replicates (T. b. brucei GVR35-Luc2; 0.5 h): 0.549% and -0.0671%
% Inhibition, single replicates (T. b. brucei GVR35-Luc2; 0.5 h): 99% and 100%
% Cell viability (T. b. brucei GVR35-Luc2; 0.5 h, average): 0.247% and 0.241%
% Inhibition (T. b. brucei GVR35-Luc2; 0.5 h, mean, suramin, fexinidazole, SCYX-7158 11 µM, CTCB-405 4 µM): 100%
% Cell viability, single replicates (T. b. brucei GVR35-Luc2; 1 h): -0.883% and -0.918%
% Inhibition, single replicates (T. b. brucei GVR35-Luc2; 1 h): 101%
% Inhibition (T. b. brucei GVR35-Luc2; 1 h, mean, suramin, fexinidazole, SCYX-7158 11 µM, CTCB-405 4 µM): 101%
% Cell viability, single replicates (T. b. brucei GVR35-Luc2; 2 h): -0.287% and -0.261%
% Inhibition, single replicates (T. b. brucei GVR35-Luc2; 2 h): 100%
% Cell viability (T. b. brucei GVR35-Luc2; 2 h, average): -0.274%
% Inhibition (T. b. brucei GVR35-Luc2; 2 h, mean, suramin, fexinidazole, SCYX-7158 11 µM, CTCB-405 4 µM): 100%
% Cell viability, single replicates (T. b. brucei GVR35-Luc2; 4 h): -0.785% and -0.904%
% Inhibition, single replicates (T. b. brucei GVR35-Luc2; 4 h): 101%
% Cell viability (T. b. brucei GVR35-Luc2; 4 h, average): -0.843% and 0% and -0.844%
% Inhibition (T. b. brucei GVR35-Luc2; 4 h, mean, suramin, fexinidazole, SCYX-7158 11 µM, CTCB-405 4 µM): 101%
% Cell viability, single replicates (T. b. brucei GVR35-Luc2; 6 h): -0.726% and -0.643%
% Inhibition, single replicates (T. b. brucei GVR35-Luc2; 6 h): 101%
% Cell viability (T. b. brucei GVR35-Luc2; 6 h, average): -0.684%
% Inhibition (T. b. brucei GVR35-Luc2; 6 h, mean, suramin, fexinidazole, SCYX-7158 11 µM, CTCB-405 4 µM): 101%
% Cell viability, single replicates (T. b. brucei GVR35-Luc2; 8 h): -0.436% and -0.367%
% Inhibition, single replicates (T. b. brucei GVR35-Luc2; 8 h): 100%
% Cell viability (T. b. brucei GVR35-Luc2; 8 h, average): -0.401%
% Inhibition (T. b. brucei GVR35-Luc2; 8 h, mean, suramin, fexinidazole, SCYX-7158 11 µM, CTCB-405 4 µM): 100%
% Cell viability, Average (T. b. brucei GVR35-Luc2; GVR35 TTK, 24 h incubation, average): -0.136%
Luminescence (medium-subtracted), Average (T. b. brucei GVR35-Luc2; GVR35 TTK, 24 h incubation, average of replicates): -47.5
% Inhibition (T. b. brucei GVR35-Luc2; GVR35 TTK, 24 h incubation, from average): 100%
% Cell viability, individual replicates (T. b. brucei GVR35-Luc2; [1]): -0.139% and -0.134%
% Inhibition, individual replicates (T. b. brucei GVR35-Luc2; [1]): 100%
Luminescence (medium-subtracted), individual replicates (T. b. brucei GVR35-Luc2; [1]): -66.5 and -28.5
% Cell viability (T. b. brucei GVR35-Luc2; GVR35 TTK, 24 h sheet, summary line marked "4"): -0.137%
Luminescence, Average (T. b. brucei GVR35-Luc2; 0.5 hour incubation): 71
Luminescence, individual replicates (T. b. brucei GVR35-Luc2; 0.5 hour incubation): 100 and 43
Luminescence, Average (T. b. brucei GVR35-Luc2; 1hour incubation): 2
Luminescence, individual replicates (T. b. brucei GVR35-Luc2; 1hour incubation): 3 and 1
Luminescence, Average (T. b. brucei GVR35-Luc2; 2hour incubation): 50
Luminescence, individual replicates (T. b. brucei GVR35-Luc2; 2hour incubation): 49 and 50
Luminescence, Average (T. b. brucei GVR35-Luc2; 4hour incubation): -42
Luminescence, individual replicates (T. b. brucei GVR35-Luc2; 4hour incubation): -34 and -51
Luminescence, Average (T. b. brucei GVR35-Luc2; 6hour incubation): -65
Luminescence, individual replicates (T. b. brucei GVR35-Luc2; 6hour incubation): -78 and -51
Luminescence, Average (T. b. brucei GVR35-Luc2; 8hour incubation): -1.5
Luminescence, individual replicates (T. b. brucei GVR35-Luc2; 8hour incubation): -12 and 9
Luminescence, Average (T. b. brucei GVR35-Luc2; 24hour incubation): -48
Luminescence, individual replicates (T. b. brucei GVR35-Luc2; 24hour incubation): -67 and -29
